Assay: gradient 5% acetonitrile 3 min, to 50% in 2 min, to 85% in 15 min, held 3 min, 100 µL/min
Settings: column: Zorbax Extend-C18 2.1 x 50 mm; eluents: water / acetonitrile, 0.1% formic acid
Outline: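 Over 3 months, pure standards in mixtures of ~100 molecules were run by HPLC coupled to a quadrupole time-of-flight mass spectrometer in positive and negative ionization mode. The column was a Zorbax Extend-C18 (2.1 × 50 mm, 1.8 μm) at 100 μL/min, eluted with water and acetonitrile each holding 0.1% formic acid, with 40 μL dead and 900 μL dwell volumes. Retention time was determined from adduct peaks chosen by software and checked manually.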

| Structure (SMILES) | RP-LC retention time [s] |
| --- | --- |
| Cc1ccc(CNC(=O)c2cccc(CN3C(=O)C4CCCN4C(=O)c4ccccc43)c2)o1 (stereo not drawn) | 757 |
| Cc1ccc2c(c1)NC1(CCN(S(=O)(=O)c3ccccc3F)CC1)c1cccn1-2 | 881 |
| CCc1c(C2CCN(C(=O)c3cc(C)on3)CC2)noc1N | 669 |
| CCc1ccc(NC(=O)Cn2c(N)nc(C)cc2=O)cc1 | 639 |
| CCn1cc(-c2nc(C(=O)Nc3ccccc3OC)cs2)c2cccnc21 | 1180 |
| N#CC1C=Cc2c(ccc3ccccc23)N1C(=O)c1ccccc1 (stereo not drawn) | 1090 |
| Cc1nn(C(C)C(=O)NCCC(C)C)c(=O)c2nn(-c3ccccc3)c(C)c12 (stereo not drawn) | 622 |
| Cc1nn2c(S(=O)(=O)N3CCC(C)CC3)c(C)nc2s1 | 838 |
| CCC(C)NC(=O)Cn1cccc(-c2nc(-c3ccc(Br)cc3)no2)c1=O (stereo not drawn) | 870 |
| O=C(NCCCN1CCCC1)c1ccc(-c2ccc(N3CCSCC3)nc2)cc1 | 574 |
| N#Cc1ccc(S(=O)(=O)N2CC(c3nc(CCOCc4ccccc4)no3)C2)cc1 | 980 |
| COc1ccc(-n2ncc3c(=O)n(Cc4nc(-c5ccc(Br)cc5)no4)cnc32)cc1 | 1090 |
| CCn1cc(-c2nc(CC(=O)Nc3ccc(F)c(F)c3)cs2)c2cccnc21 | 961 |
| COc1nccnc1NC1CCN(C(=O)c2ccnn2C)CC1 | 608 |
| CCc1ccc(CNC(=O)c2cc(-c3ccncc3)cn2C)cc1 | 669 |
| CC(C)(C)c1ccc(OCC(=O)Nc2ccc(CC(=O)N3CCOCC3)cc2)cc1 | 870 |
| CCOC(=O)CCNC(=O)N1CCCCCCN(C)C(=O)CC1 | 627 |
| O=c1ccc(N2CCCN(S(=O)(=O)c3ccc(F)cc3F)CC2)nn1-c1ccccc1 | 842 |
| CCOc1ccccc1C(=O)NCc1nc(C)no1 | 684 |
| COc1cccc(CCC(=O)N2CCn3cnnc3C2)c1 | 584 |
| CCOC(=O)c1cc(S(=O)(=O)N2CCCC2C(=O)N2CCC(Cc3ccccc3)CC2)cn1C (stereo not drawn) | 1020 |
| COCCOC1CCN(C(=O)c2cccs2)CC1 | 665 |
| Cc1sc(-c2cc(C(F)(F)F)[nH]n2)cc1S(=O)(=O)N1CCN(c2ccccn2)CC1 | 752 |

| Structure (SMILES) | RP-LC retention time [s] |
| --- | --- |
| Cc1ccc(-c2noc(C3CCCN3C(=O)NC3CCCCC3)n2)cc1 (stereo not drawn) | 1020 |
| COc1ccccc1-c1noc(Cn2cnc3c(cnn3-c3ccc(Cl)cc3)c2=O)n1 | 1010 |
| CCNC(=O)c1cc(C)nc2ccc(Cl)cc12 | 649 |
| O=C(NC(c1ccccc1)c1nnc(N2CCCC2)o1)c1ccccc1Cl (stereo not drawn) | 867 |
| COc1ccc(C(=O)Nc2nc(CC(=O)Nc3nc4c(C)cccc4s3)cs2)cc1 | 1010 |
| CCOc1cc(C(=O)Nc2c(-c3ccccc3)nc3ccccn23)cc(OCC)c1OCC | 759 |
| Nc1ccc(SCc2nc3cccc4c3n2CCC4)cc1 | 662 |
| CCc1ccc(N2C[C@@]34C=C[C@@H](O3)[C@H](C(=O)OC)[C@@H]4C2=O)cc1 | 793 |
| Cc1noc(C)c1Cc1ccc(C(=O)NCC23CCCC=C2NC(=O)CC3)o1 (stereo not drawn) | 705 |
| COc1ccc(Cl)cc1NC(=O)CC1CCCCN1S(=O)(=O)c1ccc(F)cc1 (stereo not drawn) | 1080 |
| CC(C)n1c(CNC(=O)C2CC(=O)N(c3n[nH]c4ccccc34)C2)nc2ccccc21 (stereo not drawn) | 614 |
| CCCc1nnsc1C(=O)NCC(c1cccs1)S(=O)(=O)c1ccc(C)cc1 (stereo not drawn) | 921 |
| CCOC(=O)c1ccc(NC(=O)C2C(=O)N(C)C3(C)CC2c2ccccc2O3)cc1 (stereo not drawn) | 1000 |
| O=C(NC1CCCCC1)N1CCC(OC2CCN(Cc3ccccc3)CC2)CC1 | 663 |
| CCOc1ccc(CN2C[C@@H]3C(=O)N(CCc4ccccc4)C(=O)[C@@H]3C2)cc1OC | 634 |
| Cc1cc(=O)n(CC(=O)Nc2cccc(F)c2)c(N)n1 | 603 |
| CC(C)CCNC(=O)C12CCCC=C1N(c1ccccc1)C(=O)CC2 (stereo not drawn) | 819 |
| CCn1ccc(C(=O)N2CCCC2c2ccc(F)cc2)n1 (stereo not drawn) | 816 |
| CC(=O)N1CCN(c2nc(CC(C)C)c3c(c2C#N)CC(C)(C)OC3)CC1 | 1060 |
| O=C(c1csc(S(=O)(=O)N2CCC(C(=O)N3CCCC3)CC2)c1)N1CCCCCC1 | 769 |
| Cc1ccc(-c2ncc(NC(=O)C3CCC3)cn2)cc1 | 941 |
| Cn1c(CNC(=O)C2(C)CCCCC(=O)N2)nc2ccccc21 (stereo not drawn) | 573 |
| CCc1nnc(NC(=O)Cc2csc(-n3cccc3)n2)s1 | 701 |

| Structure (SMILES) | RP-LC retention time [s] |
| --- | --- |
| Cc1ccc(S(=O)(=O)c2cnc(N3CCN(c4cc(Cl)ccc4C)CC3)nc2N)cc1 | 1320 |
| CC(C)Cc1nc2nccc(-c3ccccc3)n2n1 | 877 |
| O=C(C1CC1)N1CCc2sc(S(=O)(=O)NCc3cccs3)cc2C1 | 794 |
| CCN(CC)S(=O)(=O)c1ccc(Cl)c(-c2nnc(-c3ccccc3OC)o2)c1 | 1020 |
| COc1ncccc1CNS(=O)(=O)c1ccc(C)cc1 | 817 |
| O=C(c1ccco1)N1CCN(S(=O)(=O)c2cc3c4c(c2)CCC(=O)N4CCC3)CC1 | 690 |
| CCN1CCN(CCCNS(=O)(=O)c2cc(-c3nc(C)c(C)s3)sc2C)CC1 | 608 |
| CCN1C(=O)c2cccnc2Sc2cc(NC(=O)c3c(F)cccc3Cl)ccc21 | 850 |
| COC(=O)c1cc2c([nH]c1=O)CC(c1ccc(OC)cc1OC)CC2=O (stereo not drawn) | 699 |
| CN(CC1CCOC1)C(=O)Nc1cccc(Cl)c1 (stereo not drawn) | 738 |
| CCc1noc(NC(C)=O)c1-c1ccc(C)c(S(=O)(=O)Nc2ccccc2F)c1 | 798 |
| CCOC(=O)c1c(C)n(C)c2ccc(O)cc12 | 803 |
| COc1ccc(C2C(C(=O)Nc3cccc(C)n3)c3ccccc3C(=O)N2C)cc1 (stereo not drawn) | 791 |
| O=S(=O)(c1ccccc1)N1CCc2nc(-c3ccc(F)cc3)ncc2C1 | 1040 |
| O=C(Cn1nc2c3sc(N4CCCCC4)nc3ncn2c1=O)Nc1ccc(F)c(F)c1 | 851 |
| CCOc1ccc(NC(=O)C2CCN(S(=O)(=O)c3ccc4c(c3)CCCC(=O)N4)CC2)cc1 | 816 |
| CCOc1ccccc1N1CCN(S(=O)(=O)c2nn(C)cc2C(=O)NCCCOC)CC1 | 847 |
| Cc1noc(-c2cccnc2N2CCCN(Cc3ccc(F)cc3)CC2)n1 | 634 |
| O=C(Cc1cccs1)NC1CCCN(c2cc(-c3ccc(F)cc3)[nH]n2)C1 (stereo not drawn) | 784 |
| O=C(c1noc2c1CCc1sccc1-2)N1CCN(c2ccccn2)CC1 | 673 |
| COc1ccc(S(=O)(=O)N2CCCC(C(=O)N(C)Cc3ccccc3)C2)cc1OC (stereo not drawn) | 859 |
| Cc1cc(C)n(CCNC(=O)c2cnccn2)n1 | 566 |

Source: the METLIN SMRT retention time set (Domingo-Almenara et al. 2019)
